In paper PMC9276676, “Difluoromethylornithine (DFMO) and AMXT 1501 inhibit capsule biosynthesis in pneumococci” (Scientific Reports, 2022):

Assays:
S. pneumoniae TIGR4 = assay type: cell-based, Streptococcus pneumoniae; conditions: DFMO 137 mM (1/2 MIC), n = 5
Experimental: (§1) This was done to directly compare possible changes in intracellular concentrations of polyamines and capsule precursors as a result of DFMO inhibition of polyamine synthesis to the earlier report where polyamine synthesis was affected via gene deletion in TIGR4[24]. […] Cells were harvested (5000×g, 10 min, 4 °C), re-suspended in extraction solvent [40% acetonitrile, 40% methanol, 20% water with formic acid (0.1 M)] and transferred to bead-beater tubes (MP Biomedicals, Irvine, CA, USA). Cells were lysed using a FastPrep-24™ Classic (45 s, 6.5 m/s, RT, 3 times) (MP Biomedicals, Irvine, CA, USA) and incubated on ice (5 min after each spin). TIGR4 lysates were clarified (6000×g, 5 min, 4 °C), and metabolite differentiation and detection were performed using published protocols[28],[29]. Liquid chromatography-mass spectrometry-based (LC–MS) metabolomic analysis was performed with an Agilent Accurate Mass 6230 TOF coupled with an Agilent 1290 LC system using a Cogent Diamond Hydride Type C column. Briefly, the mobile phase consisted of the following: solvent A (ddH2O with 0.2% formic acid) and solvent B (acetonitrile with 0.2% formic acid). The gradient used was as follows: 0–2 min, 85% B; 3–5 min, 80% B; 6–7 min, 75% B; 8–9 min, 70% B; 10–11.1 min, 50% B; 11.1–14 min 20% B; 14.1–24 min 5% B followed by a 10 min re-equilibration period at 85% B at a flow rate of 0.4 mL/min. Mass axis dynamics was calibrated by continuous infusion of a reference mass solution using an isocratic pump. […] Metabolite identities were searched for using a mass tolerance of < 0.005 Da. Metabolite concentrations from the 5 biological replicates were normalized to biomass based on measurement of residual peptide content in individual samples using the Pierce BCA Protein Assay kit (Thermo Fisher Scientific, Waltham, MA, USA). Data were analyzed using Profinder B.07.00 software (Agilent Technologies, Santa Clara, CA, USA). Extracted molecular features detected in the mass analyzer were identified using accurate mass values and used to generate empirical molecular formulae using an in-house metabolite database that included known intermediates, amino acid precursors and polyamines and their derivatives. Statistical analysis of metabolite peak intensity data was performed using MetaboAnalyst 4.0[30]. Data were normalized (quantile), log transformed and significant fold change between WT and DFMO-treated WT were identified by Student’s t-test (p ≤ 0.05).

S. pneumoniae D39 = assay type: cell-based, Streptococcus pneumoniae
Experimental: as §1
To measure the polyamines, glucose and glucuronic acid in D39, TSQ Quantum Access triple-quadrupole tandem mass spectrometer (Thermo Fisher Scientific, Waltham, MA, USA) equipped with acquity UPLC system (Waters, Milford, MA, USA) was operated in positive and negative ion mode. Chromatographic separation was performed on Cogent Diamond Hydride HPLC column (2.1 mm × 150 mm, 4 μm) coupled with Congent Diamond Hydride HPLC Guard column (2.0 mm × 10 mm, 4 μm). The flow rate was 500 µL/min, the sample injection volume was 10 µL, and the column temperature was at 40 °C. The mobile phase A was composed of water with 0.1% v/v formic acid, and mobile phase B was composed of acetonitrile with 0.1% v/v formic acid. The gradient condition was 0 min (5% A, 95% B), 1 min (5% A, 95% B), 4.0 min (30% A, 70% B), 6 min (95% A, 5% B), 6.5 min (95% A, 5% B), 7 min (5% A, 95% B), and 10 min (5% A, 95%B). The total run time was 10 min, and the column eluate directed into the mass spectrometer using an electrospray ionization interface in positive and negative modes. The MS conditions were set as follow: spray voltage = 3500 V, vaporizer temperature = 350 °C, sheath gas = 25 psi, auxiliary gas = 10 psi, and capillary temperature = 350 °C. Samples were run in selected reaction monitoring (SRM) mode, and the optimized MS/MS parameters for ionization are given in Table 1.

[1] = DFMO 34 mM, agmatine 20 mM, AMXT 1501 7.4 µM, p-value in bracket omitted

## NCCC[C@](N)(C(=O)O)C(F)F [DFMO, α-difluoromethylornithine]
S. pneumoniae TIGR4
  5,10-methylenetetrahydrofolate, fold change TIGR4+DFMO /TIGR4: 4.4
  5-phospho-α-D-ribose 1-diphosphate (PRPP), fold change TIGR4+DFMO /TIGR4: 3.8
  6-Phosphogluconate, fold change TIGR4+DFMO /TIGR4: 7.8
  Agmatine, fold change TIGR4+DFMO /TIGR4: -2.0
  Arginine, fold change TIGR4+DFMO /TIGR4: 1.1
  Cadaverine, fold change TIGR4+DFMO /TIGR4: -1.5
  Fructose 6-phosphate, fold change TIGR4+DFMO /TIGR4: -16.8
  Fucose, fold change TIGR4+DFMO /TIGR4: -1.3
  GSH, fold change TIGR4+DFMO /TIGR4: -23.2
  GSSG, fold change TIGR4+DFMO /TIGR4: -41.3
  Galactose 1-phosphate, fold change TIGR4+DFMO /TIGR4: -16.8
  Glucosamine 6-phosphate, fold change TIGR4+DFMO /TIGR4: -21.0
  Glucose 6-phosphate, fold change TIGR4+DFMO /TIGR4: 10.6
  Glyceraldehyde 3-phosphate, fold change TIGR4+DFMO /TIGR4: -308.6
  Lysine, fold change TIGR4+DFMO /TIGR4: -1.7
  Methionine, fold change TIGR4+DFMO /TIGR4: -1.8
  N-Acetylspermidine, fold change TIGR4+DFMO /TIGR4: -1.6
  NADH, fold change TIGR4+DFMO /TIGR4: -358.8
  NADPH, fold change TIGR4+DFMO /TIGR4: 25.1
  Ornithine, fold change TIGR4+DFMO /TIGR4: -1.3
  Putrescine, fold change TIGR4+DFMO /TIGR4: -1.9
  Pyruvate, fold change TIGR4+DFMO /TIGR4: -1.74
  S-adenosylmethionine, fold change TIGR4+DFMO /TIGR4: 64.2
  Sedoheptulose 7-phosphate, fold change TIGR4+DFMO /TIGR4: -13.5
  Spermidine, fold change TIGR4+DFMO /TIGR4: -3.1
  Spermine, fold change TIGR4+DFMO /TIGR4: 26.6
  Tetrahydrofolate, fold change TIGR4+DFMO /TIGR4: -1.4
  UDP, fold change TIGR4+DFMO /TIGR4: -53.1
  UDP-Galactose, fold change TIGR4+DFMO /TIGR4: -66.5
  UDP-Glucose, fold change TIGR4+DFMO /TIGR4: -66.5
  UDP-N-acetylfucosamine, fold change TIGR4+DFMO /TIGR4: 2.3
  UDP-N-acetylgalactosamine, fold change TIGR4+DFMO /TIGR4: -18.9
  UDP-N-acetylglucosamine, fold change TIGR4+DFMO /TIGR4: -18.9
  UDP-N-acetylmannosamine, fold change TIGR4+DFMO /TIGR4: -18.9
  UDP-N-acetylmuramic acid, fold change TIGR4+DFMO /TIGR4: -259.2
  UMP, fold change TIGR4+DFMO /TIGR4: -2.1
S. pneumoniae D39; 1/8 MIC DFMO (34 mM), 1/2 MIC AMXT 1501 (7.4 µM)
  intracellular glucose (peak intensity): significantly reduced
S. pneumoniae D39; 1/8 MIC DFMO (34 mM), 1/2 MIC AMXT 1501 (7.4 µM), separately or in combination
  intracellular glucuronic acid (peak intensity): significantly depleted
S. pneumoniae D39; [1]
  Agmatine, fold change treated D39 /D39: -1.3 (2.13E05)
  Cadaverine, fold change treated D39 /D39: -0.8 (0.004)
  Lysine, fold change treated D39 /D39: -0.2 (0.018)
  N-acetyl spermidine, fold change treated D39 /D39: -0.6 (0.094)
  N-carbamoyl putrescine, fold change treated D39 /D39: -1.6 (0.026)
  Ornithine, fold change treated D39 /D39: 0.4 (0.004)
  Putrescine, fold change treated D39 /D39: -0.4 (0.015)
  Spermidine, fold change treated D39 /D39: 0.3 (0.309)
  Spermine, fold change treated D39 /D39: -0.7 (0.002)
